Laboratory results published in patent publication US6342537B1, “Gel for treatment of skin diseases and for disinfection of the skin” (priority 1994, dated 2002).
Values joined by “and” are separate entries in the source; they are usually repeats but may differ in a detail not shown here. Identical values can stand only once.

System: herpes simplex virus (HSV) type 1
Experiment: Inactivation of herpes simplex virus in infected MRC-5 cells by alcohols (Example 25); for HSV - CPE after 44 hours with the detecting cell-layer: key: 0: no CPE; 1: a few; 2: several; 3: all cells infected with HSV
Assay type: cell-based
Details: for HSV - CPE after 44 hours with the detecting cell-layer: duplicate wells; for inactivation of herpes simplex virus (in words): HSV type 1 infected MRC-5 cells
Protocol: Ethanol is an accepted disinfectant for viruses with an envelope. The purpose of this study was to measure the inactivating effect of “short-chained alcohols” on virus-infected cells.
Four 96 well plates with confluent MRC-5 cell were infected with herpes simplex virus (HSV) type 1. After appearance of 50% cytopathic effect (CPE), the culture medium was removed, and rows of 12 wells were treated with 25 μl/well of the alcohols or buffer after the following scheme: The first row with undiluted, and the following with 96%, 90%, 80%, 70%, 60% and 50% alcohol, respectively—all dilutions performed in buffer (PBS). To the last row was added buffer. After 2, 4, 8, 16 and 32 min, respectively, two wells in each row were emptied and the cells overlaid with PBS. The plate was then frozen at —80° C. Afterwards the wells were seeded with a detection layer of MRC-5 cells and the plates were placed at 37° C. for 44 hours. Virus surviving the treatment with alcohol was detected by the appearance of CPE, characteristic for HSV in the detection monolayer.

[1] = alcohol undiluted, 2 min with alcohol

| Molecule | HSV - CPE after 44 hours with the detecting cell-layer (50% alcohol in PBS, 2 min) | HSV - CPE after 44 hours with the detecting cell-layer (50% alcohol in PBS, 4 min) | HSV - CPE after 44 hours with the detecting cell-layer (50% alcohol in PBS, 8 min) | HSV - CPE after 44 hours with the detecting cell-layer (50% alcohol in PBS, 16 min) | HSV - CPE after 44 hours with the detecting cell-layer (50% alcohol in PBS, 32 min) | HSV - CPE after 44 hours with the detecting cell-layer (60% alcohol in PBS, 2 min) | HSV - CPE after 44 hours with the detecting cell-layer (60% alcohol in PBS, 4 min) | HSV - CPE after 44 hours with the detecting cell-layer (60% alcohol in PBS, 8 min) | HSV - CPE after 44 hours with the detecting cell-layer (60% alcohol in PBS, 16 min) | HSV - CPE after 44 hours with the detecting cell-layer (60% alcohol in PBS, 32 min) | HSV - CPE after 44 hours with the detecting cell-layer (70% alcohol in PBS, 2 min) | HSV - CPE after 44 hours with the detecting cell-layer (70% alcohol in PBS, 4 min) | HSV - CPE after 44 hours with the detecting cell-layer (70% alcohol in PBS, 8 min) | HSV - CPE after 44 hours with the detecting cell-layer (70% alcohol in PBS, 16 min) | HSV - CPE after 44 hours with the detecting cell-layer (70% alcohol in PBS, 32 min) | HSV - CPE after 44 hours with the detecting cell-layer (80% alcohol in PBS, 2 min) | HSV - CPE after 44 hours with the detecting cell-layer (80% alcohol in PBS, 4 min) | HSV - CPE after 44 hours with the detecting cell-layer (80% alcohol in PBS, 8 min) | HSV - CPE after 44 hours with the detecting cell-layer (80% alcohol in PBS, 16 min) | HSV - CPE after 44 hours with the detecting cell-layer (80% alcohol in PBS, 32 min) | other results |
| --- | --- | --- | --- | --- | --- | --- | --- | --- | --- | --- | --- | --- | --- | --- | --- | --- | --- | --- | --- | --- | --- |
| CCO [Ethanol] | 3 | 3 | 3 | 3 | 3 | 3 | 3 | 3 | 3 | 3 | 3 | 3 | 3 | 3 | 3 | 2 | 2 | 2 | 2 | 2 | HSV - CPE after 44 hours with the detecting cell-layer (90% alcohol in PBS, 2 min): 1; HSV - CPE after 44 hours with the detecting cell-layer (90% alcohol in PBS, 4 min): 1 and 0; HSV - CPE after 44 hours with the detecting cell-layer (90% alcohol in PBS, 8 min): 0; HSV - CPE after 44 hours with the detecting cell-layer (90% alcohol in PBS, 16 min): 0; HSV - CPE after 44 hours with the detecting cell-layer (90% alcohol in PBS, 32 min): 0; HSV - CPE after 44 hours with the detecting cell-layer (96% alcohol in PBS, 2 min): 1; HSV - CPE after 44 hours with the detecting cell-layer (96% alcohol in PBS, 4 min): 1 and 0; HSV - CPE after 44 hours with the detecting cell-layer (96% alcohol in PBS, 8 min): 0; HSV - CPE after 44 hours with the detecting cell-layer (96% alcohol in PBS, 16 min): 0; HSV - CPE after 44 hours with the detecting cell-layer (96% alcohol in PBS, 32 min): 0; inactivation of herpes simplex virus (in words): able to inactivate herpes simplex virus even intracellular virus; HSV - CPE after 44 hours with the detecting cell-layer [1]: 0; HSV - CPE after 44 hours with the detecting cell-layer (alcohol undiluted, 4 min): 0; HSV - CPE after 44 hours with the detecting cell-layer (alcohol undiluted, 8 min): 0; HSV - CPE after 44 hours with the detecting cell-layer (alcohol undiluted, 16 min): 0; HSV - CPE after 44 hours with the detecting cell-layer (alcohol undiluted, 32 min): 0 |
| CCCO [Propanol] | 2 | 3 | 3 and 2 | 3 and 2 | 1 | 1 and 2 | 2 and 1 | 1 and 0 | 1 and 0 | 0 | 1 and 2 | 1 and 0 | 1 and 0 | 0 | 0 | 0 | 0 | 0 and 1 | 0 | 0 | HSV - CPE after 44 hours with the detecting cell-layer (90% alcohol in PBS, 2 min): 0; HSV - CPE after 44 hours with the detecting cell-layer (90% alcohol in PBS, 4 min): 0; HSV - CPE after 44 hours with the detecting cell-layer (90% alcohol in PBS, 8 min): 0; HSV - CPE after 44 hours with the detecting cell-layer (90% alcohol in PBS, 16 min): 0; HSV - CPE after 44 hours with the detecting cell-layer (90% alcohol in PBS, 32 min): 0; HSV - CPE after 44 hours with the detecting cell-layer (96% alcohol in PBS, 2 min): 0; HSV - CPE after 44 hours with the detecting cell-layer (96% alcohol in PBS, 4 min): 0; HSV - CPE after 44 hours with the detecting cell-layer (96% alcohol in PBS, 8 min): 0; HSV - CPE after 44 hours with the detecting cell-layer (96% alcohol in PBS, 16 min): 0; HSV - CPE after 44 hours with the detecting cell-layer (96% alcohol in PBS, 32 min): 0; inactivation of herpes simplex virus (in words): able to inactivate herpes simplex virus even intracellular virus; HSV - CPE after 44 hours with the detecting cell-layer [1]: 0; HSV - CPE after 44 hours with the detecting cell-layer (alcohol undiluted, 4 min): 0; HSV - CPE after 44 hours with the detecting cell-layer (alcohol undiluted, 8 min): 0; HSV - CPE after 44 hours with the detecting cell-layer (alcohol undiluted, 16 min): 0; HSV - CPE after 44 hours with the detecting cell-layer (alcohol undiluted, 32 min): 0 |
| Butanol | 0 and 2 | 2 | 2 | 0 | 1 and 0 | 0 and 2 | 2 | 2 and 0 | 0 | 1 and 0 | 0 | 0 and 1 | 1 and 0 | 0 and 1 | 1 | 0 | 0 and 1 | 1 and 0 | 0 | 1 and 0 | HSV - CPE after 44 hours with the detecting cell-layer (90% alcohol in PBS, 2 min): 0; HSV - CPE after 44 hours with the detecting cell-layer (90% alcohol in PBS, 4 min): 0 and 1; HSV - CPE after 44 hours with the detecting cell-layer (90% alcohol in PBS, 8 min): 0; HSV - CPE after 44 hours with the detecting cell-layer (90% alcohol in PBS, 16 min): 1 and 0; HSV - CPE after 44 hours with the detecting cell-layer (90% alcohol in PBS, 32 min): 0 and 3; HSV - CPE after 44 hours with the detecting cell-layer (96% alcohol in PBS, 2 min): 0; HSV - CPE after 44 hours with the detecting cell-layer (96% alcohol in PBS, 4 min): 0; HSV - CPE after 44 hours with the detecting cell-layer (96% alcohol in PBS, 8 min): 0 and 2; HSV - CPE after 44 hours with the detecting cell-layer (96% alcohol in PBS, 16 min): 0; HSV - CPE after 44 hours with the detecting cell-layer (96% alcohol in PBS, 32 min): 0; inactivation of herpes simplex virus (in words): able to inactivate herpes simplex virus even intracellular virus; HSV - CPE after 44 hours with the detecting cell-layer [1]: 0; HSV - CPE after 44 hours with the detecting cell-layer (alcohol undiluted, 4 min): 0; HSV - CPE after 44 hours with the detecting cell-layer (alcohol undiluted, 8 min): 0; HSV - CPE after 44 hours with the detecting cell-layer (alcohol undiluted, 16 min): 0; HSV - CPE after 44 hours with the detecting cell-layer (alcohol undiluted, 32 min): 0 |
